Assay results published in patent publication US20260035479A1, “GD2 BI-SPECIFIC INVARIANT NATURAL KILLER T CELL ENGAGERS AND METHODS OF USE THEREOF” (The Children's Hospital of Philadelphia, priority 2022, published 2026).

Legend:
[1] = tested on: EL4 lymphoma cells; test: 51Cr-release killing assay of EL4 lymphoma cells with murine hepatic lymphocytes or sorted iNKTs; assay type: cell-based; settings: for percent specific lysis relative to control: sorted murine iNKTs as effectors, p=0.014 C34 vs control; for percent specific lysis in comparison with control: unsorted hepatic lymphocytes as effectors, 100 ng/mL glycolipid antigen, p=0.0133 C34 vs nothing added
Experimental: FIGS. 9A-9B: iNKT-mediated cytotoxicity with glycolipid antigen (GAg) stimulation. (FIG. 9A) C57BL/6 hepatic lymphocytes (effectors) were co-cultured for 18 hours with ^51Cr-loaded EL4 lymphoma cells (targets) in triplicates at E:T ratios of 2.5:1, 5:1,10:1, 20:1, and 40:1; these cocultures were stimulated with either alpha galactosyl-ceramide (a-GalCer) or C34 at indicated concentrations or left unstimulated (Nothing added). (FIG. 9B) Similar experiments were performed with flow cytometrically sorted murine hepatic iNKTs as effector populations.
^51Cr Killing Assays. EL4 lymphoma cells were used as targets and were labeled with ^51Cr (Perkin-Elmer) at a ratio of 1 μCi per 1×10^6 cells at 37° C. for 1 hour; excess ^51Cr was removed by extensive washing in RPMI media as described previously (Orange et al., 2022). Murine hepatic iNKT-enriched cell populations and flow cytometrically sorted iNKTs were plated in 96-well round-bottom wells. 2×10^5 target cells were then mixed with these iNKTs in each well at designated effector to target ratios with 100 ng/mL of glycolipid antigen in triplicate. After 16 hours, supernatants from each well were transferred to a Deepwell Lumiplate (Perkin Elmer), dried overnight, and then analyzed by a TopCount gamma radiation detector (Perkin Elmer). Spontaneous release was determined by collecting supernatants from cultures of targets alone, while maximum lysis was measured from the supernatants of target cells that were fully lysed with detergent. Percent specific lysis was calculated by the equation: 100× (sample lysis cpm-spontaneously released cpm)/(maximum cpm-spontaneously released cpm), as described previously (Orange et al., 2022).
^51Cr-release killing assays: Percent specific lysis was calculated as described above and triplicate values were analyzed using Graphpad (Prism). Mean values and standard errors of the mean were calculated. Percent specific lysis among the three groups were compared using one-way ANOVA. Significance was set at p value of <0.05.

[2] = tested on: hepatic iNKTs; test: Glycolipid antigen-iNKT stimulation in mice, hepatic iNKT cytokine expression by flow cytometry; assay type: in vivo, C57BL/6 mice; settings: for IFN-γ MFI relative to PBS: n=2; for iNKT expression of intracellular IL-4 vs PBS / iNKT expression of surface CD107a vs PBS / expression of IFN-γ in iNKTs: acute stimulation, 4 μg intraperitoneal; for expression of IFN-γ in iNKTs: livers harvested at hour 4, PBS control 10.1%
Experimental: FIG. 7: iNKT Response to Glycolipid Antigen Stimulation. Two C57BL/6 mice per group were injected with phosphate-buffered saline (PBS), alpha-galactosyl ceramide (a-GalCer), or C34 at hour 0. At hour 4, mice were euthanized, their livers were excised and hepatic lymphocytes isolated and stained for NK1.1+ TCR-β+ mononuclear single cells, and intracellular IFN-γ was assayed by flow cytometry. The IFN-γ positive gate was drawn based on unstained controls. Representative data shown are from one mouse.
FIGS. 8A-8C: Acute and Chronic cytokine expression following GAg-stimulation of iNKTs. Two C57BL/6 mice per group were injected with 4 μg of C34, alpha galactosyl-ceramide (aGC), or Phosphate-Buffered Saline (PBS), in acute or chronic stimulation groups. Hepatic lymphocytes were then isolated and stained for NK1.1, TCR-β, and interferon-gamma (IFN-γ) with intra- and extracellular staining methods. (FIG. 8A) IFN-γ mean fluorescence intensity (MFI) of iNKTs. (FIG. 8B) CD107a MFI of iNKTs. (FIG. 8C) Interleukin-4 MFI of iNKTs.
Glycolipid antigen-iNKT stimulation experiments. C57/BL6 mice were injected with free glycolipid antigen or phosphate-buffered saline (PBS) intraperitoneally at a dose of 4 μg per injection in “acute” and “chronic” exposure situations. In acute stimulation conditions, intraperitoneal injections were given at hour 0, then at hour 4 mice were sacrificed and livers harvested and processed as above. In chronic stimulation conditions, animals received the 4 μg dose of glycolipid antigen days 0, 4, and 7. Livers were then harvested 4 hours after the final intraperitoneal injection and processed as described above. Hepatic mononuclear cells were extracellularly stained with fluorophore-labeled loaded-CD1d tetramer, anti-NK1.1, anti-CD107a, and then fixed and stained intracellularly with anti-IFN-Y, anti-IL-4, anti-TCR-β using a Fixation/Permeabilization kit (BD) and analyzed on FACSVerse flow cytometer (BD).
Data Analysis. Cytokinc expression analysis: FCS files were analyzed using Flowjo (TreeStar) software. Mean fluorescence intensity (MFI) of IFN-γ CD107a, and IL-4 on iNKT cells was compared between PBS, aGC, and C34-stimulated groups using Graphpad (Prism) and compared using Student's t-test between two Groups (ex: PBS vs aGC), and one-way ANOVA for comparison of PBS, aGC, and C34.

[3] = tested on: iNKTs; settings: Parekh, 2005; cited from earlier work
[4] = tested on: patients with advanced solid tumors; settings: Giaccone et al., 2002; cited from earlier work
[5] = acute stimulation protocol, p=0.012 aGC vs PBS, p=0.0034 C34 vs PBS
[6] = chronic stimulation protocol, three intraperitoneal injections over 7 days, p=0.0010 for C34

Molecule	percent specific lysis relative to control [1]	percent specific lysis in comparison with control [1]	IFN-γ MFI relative to PBS [2, 5]	iNKT expression of intracellular IL-4 vs PBS [2]	iNKT expression of surface CD107a vs PBS [2]	expression of IFN-γ in iNKTs [2]	IFN-γ MFI relative to PBS [2, 6]	IFN-γ MFI, chronic vs acute group ([2]; chronic versus acute stimulation with the same glycolipid)	duration of iNKT anergy following stimulation [3]	disease response [4]	dose-limiting toxicities [4]	patients with increased serum GM-CSF and TNF-α [4]
phenyl α-GalactosylCeramide [C34]	greater	higher	increased	No significant differences	No significant differences	71.4 % of iNKTs	greater	not a significant difference				
CCCCCCCCCCCCCCCCCCCCCCCCCC(=O)N[C@@H](CO[C@H]1O[C@H](CO)[C@H](O)[C@H](O)[C@H]1O)[C@H](O)[C@H](O)CCCCCCCCCCCCCC [aGC, α-GalactosylCeramide]	greater	higher	increased	No significant differences	No significant differences	30.4 % of iNKTs	no difference		up to 6 months	without disease response	no dose-limiting toxicities	5 of 24
